For 24 compounds, IC50 results are on record in patent US9376429B2, “Sodium channel blockers, preparation method thereof and use thereof” (Daewoong Pharmaceutical Co., Ltd., priority 2012, dated 2016).

Bounds are passed on as bounds.

This test deals with T1, sodium ion channel (Nav1.7) (Homo sapiens, UniProt Q15858).
T1 construct: host or cells: HEK293
T1 sequence (Q15858 whole entry): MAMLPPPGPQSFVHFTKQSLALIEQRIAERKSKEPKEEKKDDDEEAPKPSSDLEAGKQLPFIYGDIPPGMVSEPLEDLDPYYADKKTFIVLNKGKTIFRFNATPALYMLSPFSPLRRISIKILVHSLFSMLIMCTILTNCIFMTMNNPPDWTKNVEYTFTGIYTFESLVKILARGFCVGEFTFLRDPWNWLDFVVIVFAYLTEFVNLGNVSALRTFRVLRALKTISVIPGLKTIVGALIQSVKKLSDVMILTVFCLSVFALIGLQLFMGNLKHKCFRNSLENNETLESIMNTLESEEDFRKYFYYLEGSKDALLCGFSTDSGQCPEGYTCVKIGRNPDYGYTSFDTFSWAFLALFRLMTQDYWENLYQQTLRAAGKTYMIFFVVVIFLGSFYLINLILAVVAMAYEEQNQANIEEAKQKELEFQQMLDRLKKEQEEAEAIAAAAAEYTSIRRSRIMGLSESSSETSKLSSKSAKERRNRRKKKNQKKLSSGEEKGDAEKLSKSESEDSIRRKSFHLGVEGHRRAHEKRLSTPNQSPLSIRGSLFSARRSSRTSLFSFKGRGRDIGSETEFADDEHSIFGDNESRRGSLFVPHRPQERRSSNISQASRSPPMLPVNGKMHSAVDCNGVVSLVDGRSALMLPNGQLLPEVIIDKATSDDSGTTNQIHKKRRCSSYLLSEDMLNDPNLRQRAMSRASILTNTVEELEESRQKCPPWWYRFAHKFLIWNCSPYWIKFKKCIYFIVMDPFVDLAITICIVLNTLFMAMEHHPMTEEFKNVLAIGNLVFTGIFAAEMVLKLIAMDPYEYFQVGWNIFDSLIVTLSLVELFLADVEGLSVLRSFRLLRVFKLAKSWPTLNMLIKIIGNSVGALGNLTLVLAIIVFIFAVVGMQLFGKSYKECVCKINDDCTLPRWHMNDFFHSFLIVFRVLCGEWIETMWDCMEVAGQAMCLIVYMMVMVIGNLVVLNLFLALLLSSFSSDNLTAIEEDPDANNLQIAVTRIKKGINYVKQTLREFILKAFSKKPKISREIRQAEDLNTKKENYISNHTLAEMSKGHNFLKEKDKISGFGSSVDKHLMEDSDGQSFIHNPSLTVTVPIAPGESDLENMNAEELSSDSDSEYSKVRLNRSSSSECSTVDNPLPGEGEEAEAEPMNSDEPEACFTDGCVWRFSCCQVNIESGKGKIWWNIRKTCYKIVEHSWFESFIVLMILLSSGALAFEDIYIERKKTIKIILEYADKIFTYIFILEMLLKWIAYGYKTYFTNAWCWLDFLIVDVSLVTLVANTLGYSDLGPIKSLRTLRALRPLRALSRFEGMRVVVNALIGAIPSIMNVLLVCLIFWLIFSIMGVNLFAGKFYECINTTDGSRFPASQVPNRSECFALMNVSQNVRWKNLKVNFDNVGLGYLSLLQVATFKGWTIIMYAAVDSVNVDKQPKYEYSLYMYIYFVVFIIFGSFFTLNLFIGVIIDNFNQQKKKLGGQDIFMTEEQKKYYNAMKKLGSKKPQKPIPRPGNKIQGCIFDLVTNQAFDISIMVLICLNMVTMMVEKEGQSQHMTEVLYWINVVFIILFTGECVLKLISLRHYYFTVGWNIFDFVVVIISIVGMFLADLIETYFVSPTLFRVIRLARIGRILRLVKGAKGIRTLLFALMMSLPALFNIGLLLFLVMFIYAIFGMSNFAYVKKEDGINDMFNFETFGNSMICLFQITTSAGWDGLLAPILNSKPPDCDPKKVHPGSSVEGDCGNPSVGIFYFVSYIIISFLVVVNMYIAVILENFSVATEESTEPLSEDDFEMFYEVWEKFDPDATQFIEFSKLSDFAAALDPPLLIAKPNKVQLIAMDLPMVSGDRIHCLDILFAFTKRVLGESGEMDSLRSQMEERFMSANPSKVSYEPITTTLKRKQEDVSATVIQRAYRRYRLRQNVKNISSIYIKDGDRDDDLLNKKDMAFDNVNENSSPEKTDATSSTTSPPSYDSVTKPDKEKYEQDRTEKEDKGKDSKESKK
Nature of the test: Blocking effect against sodium ion channel (Nav1.7), IonFlux16 auto patch clamp, hNav1.7 HEK293 cells. Type of test: cell-based. The following applies: peak current after 50 seconds treatment, eight concentrations. The procedure: In order to measure the activities of the inventive compounds as antagonists, an experiment on a blocking effect against the sodium ion channel (Nav1.7) was carried out as follows.
The hNav1.7 HEK293 cell line used was a cell line having a human sodium ion channel 1.7 gene (type IX voltage-gated sodium channel alpha subunit) in human embryonic kidney (HEK) 293 cells and was purchased from Millipore. The medium used was prepared by adding 1% 100×NEAA and 10% heat inactivated FBS to DMEM F-12 and adding 1% P/S as an antibiotic thereto. G-418 as a […] was added during subculture, and the hNav1.7 HEK293 cells were cultured to a confluence of about 80% in a T75 flask in a 5% CO2 incubator at 37° C. for 2 or 3 days and detached from the flask by treatment with 0.25% trypsin solution. Then, the cells were collected by centrifugation and used in the experiment.
The compounds prepared in the Examples of the present invention were dissolved in dimethyl sulfoxide (DMSO) and used in the experiment. 90 mM and 10 mM DMSO stock solutions were prepared from each of the compounds and diluted in an extracellular solution (4 mM KCl, 138 mM NaCl, 1 mM MgCl2, 1.8 mM CaCl2, 5.6 mM glucose, 10 mM HEPES, pH 7.45) at various concentrations so that the final concentration of each compound in DMSO was 0.3% or less.
To measure the sodium ion channel blocking effect, an IonFlux16 Auto patch clamp system (Fluxion, Inc.) and a plate for exclusive use were used. The cells were distributed in an extracellular solution (4 mM KCl, 138 mM NaCl, 1 mM MgCl2, 1.8 mM CaCl2, 5.6 mM glucose, 10 mM HEPES, pH 7.45), and then dispensed in the specified region of the plate, and each of the prepared compound samples was diluted at various concentrations, and then dispensed in the specified region of the plate.
Specifically, eight concentrations per compound were set, and percent inhibition was determined by calculating the percentage of inhibition of the peak current, generated after treating the cells with each concentration of the compound for 50 seconds, relative to the peak current generated before treatment with the compound, and the IC50 value was calculated using the Sigma plot program. In Table 2 below, the percent inhibition of Nav1.7 is rated as follows: […]
(The patch-clamp technique gives a direct electrical read-out from membranes.)
In turn, `O=S(=O)(Nc1nccs1)c1ccc(C(O)c2ccc(Cl)cc2-c2ccoc2)cc1` (stereo not drawn) [Example 143, 4-((4-chloro-2-(furan-3-yl)phenyl)(hydroxy)methyl)-N-(thiazol-2-yl)benzenesulfonamide] yielded an IC50 of under 50 nM. To `Cn1cc(-c2ccc(Oc3ccc(S(=O)(=O)Nc4nccs4)cc3C#N)c(-c3ccnn3C)n2)cn1` [Example 120, 3-cyano-4-((6-(1-methyl-1H-pyrazol-4-yl)-2-(1-methyl-1H-pyrazol-5-yl)pyridin-3-yl)oxy)-N-(thiazol-2-yl)benzenesulfonamide] belongs over 100 nM; to `Cn1nccc1-c1nc(-c2ccsc2)ccc1Oc1ccc(S(=O)(=O)Nc2nccs2)cc1C#N` [Example 119, 3-cyano-4-((2-(1-methyl-1H-pyrazol-5-yl)-6-(thiophen-3-yl)pyridin-3-yl)oxy)-N-(thiazol-2-yl)benzenesulfonamide], 51 to 100 nM. `O=S(=O)(Nc1cscn1)c1cc(Cl)c(Oc2cnc(-c3ccc(F)c(F)c3)cc2-c2ccnc(F)c2)cc1F` [Example 80, 5-chloro-4-((6-(3,4-difluorophenyl)-2′-fluoro-[4,4′-bipyridin]-3-yl)oxy)-2-fluoro-N-(thiazol-4-yl)benzenesulfonamide] yielded an IC50 of over 100 nM. On to `Cc1noc(C)c1-c1cc(-c2ccccc2)ncc1Oc1ccc(S(=O)(=O)Nc2nccs2)cc1C#N` [Example 37, 3-cyano-4-((4-(3,5-dimethylisoxazol-4-yl)-6-phenylpyridin-3-yl)oxy)-N-(thiazol-2-yl)benzenesulfonamide], for which the IC50 is over 100 nM. As for `N#Cc1cc(S(=O)(=O)Nc2nccs2)ccc1Oc1ccc(-c2ccsc2)nc1-c1ccoc1` [Example 113, 3-cyano-4-((2-(furan-3-yl)-6-(thiophen-3-yl)pyridin-3-yl)oxy)-N-(thiazol-2-yl)benzenesulfonamide], the IC50 is over 100 nM. Compound `N#Cc1cc(S(=O)(=O)Nc2nccs2)ccc1Oc1cnc(-c2ccccc2)cc1-c1ccnc(F)c1` [Example 31, 3-cyano-4-((2′-fluoro-6-phenyl-[4,4′-bipyridin]-3-yl)oxy)-N-(thiazol-2-yl)benzenesulfonamide] showed an IC50 of 51 to 100 nM. `O=S(=O)(Nc1cscn1)c1cc(Cl)c(Oc2cnc(-c3ccnc(F)c3)cc2-c2cccnc2)cc1F` [Example 75, 5-chloro-2-fluoro-4-((2″-fluoro-[3,4′:2′,4″-terpyridin]-5′-yl)oxy)-N-(thiazol-4-yl)benzenesulfonamide] came in with an IC50 of over 100 nM. For the compound `N#Cc1cc(S(=O)(=O)Nc2nccs2)ccc1Oc1cnc(-c2ccc(F)nc2)cc1-c1ccoc1` [Example 11, 3-cyano-4-(6′-fluoro-4-(furan-3-yl)-2,3′-bipyridin-5-yloxy)-N-(thiazol-2-yl)benzenesulfonamide], the IC50 lay within 51 to 100 nM.

`N#Cc1cc(S(=O)(=O)Nc2nccs2)ccc1Oc1cnc(-c2ccc(F)nc2F)cc1-c1ccncc1` [Example 53, 3-cyano-4-((2,6-difluoro-[3,2′:4′,4″-terpyridin]-5′-yl)oxy)-N-(thiazol-2-yl)benzenesulfonamide] displayed an IC50 of over 100 nM. The same measure for `N#Cc1cc(S(=O)(=O)Nc2cscn2)ccc1Oc1cnc(-c2ccc(F)cc2)cc1-c1cn[nH]c1` [Example 90, 3-cyano-4-((6-(4-fluorophenyl)-4-(1H-pyrazol-4-yl)pyridin-3-yl)oxy)-N-(thiazol-4-yl)benzenesulfonamide]: over 100 nM; for `Cn1cc(-c2cc(-c3ccc(F)c(F)c3)ncc2Oc2cc(F)c(S(=O)(=O)Nc3cscn3)cc2Cl)cn1` [Example 67, 5-chloro-4-((6-(3,4-difluorophenyl)-4-(1-methyl-1H-pyrazol-4-yl)pyridin-3-yl)oxy)-2-fluoro-N-(thiazol-4-yl)benzenesulfonamide 2,2,2-trifluoroacetate]: over 100 nM. The same measure for `Cn1cc(-c2cc(-c3ccoc3)c(Oc3ccc(S(=O)(=O)Nc4nccs4)cc3C#N)cn2)cn1` [Example 46, 3-cyano-4-((4-(furan-3-yl)-6-(1-methyl-1H-pyrazol-4-yl)pyridin-3-yl)oxy)-N-(thiazol-2-yl)benzenesulfonamide]: over 100 nM; for `O=S(=O)(Nc1cscn1)c1cc(Cl)c(Oc2cnc(-c3cccc(F)c3)cc2-c2ccnc(N3CCOCC3)c2)cc1F` [Example 101, 5-chloro-2-fluoro-4-((6-(3-fluorophenyl)-2′-morpholino-[4,4′-bipyridin]-3-yl)oxy)-N-(thiazol-4-yl)benzenesulfonamide]: 51 to 100 nM. The same measure for `O=S(=O)(Nc1nccs1)c1ccc(C(O)c2ccc(-c3cccnc3F)cc2-c2ccoc2)cc1` (stereo not drawn) [Example 150, 4-((4-(2-fluoropyridin-3-yl)-2-(furan-3-yl)phenyl)(hydroxy)methyl)-N-(thiazol-2-yl)benzenesulfonamide]: over 100 nM; for `O=S(=O)(Nc1cscn1)c1cc(Cl)c(Oc2cnc(-c3cccc(F)c3)cc2-c2ccnc(N3CCNCC3)n2)cc1F` [Example 72, 5-chloro-2-fluoro-4-((6-(3-fluorophenyl)-4-(2-(piperazin-1-yl)pyrimidin-4-yl)pyridin-3-yl)oxy)-N-(thiazol-4-yl)benzenesulfonamide]: over 100 nM. With `O=S(=O)(Nc1nccs1)c1ccc(Oc2cnc(-c3cccnc3F)cc2-c2ccoc2)c(F)c1` [Example 47, 3-fluoro-4-((2′-fluoro-4-(furan-3-yl)-[2,3′-bipyridin]-5-yl)oxy)-N-(thiazol-2-yl)benzenesulfonamide], the IC50 is over 100 nM. As for `N#Cc1cc(S(=O)(=O)Nc2nccs2)ccc1Oc1ccc(-c2ccncc2)nc1-c1ccoc1` [Example 111, 3-cyano-4-((6-(furan-3-yl)-[2,4′-bipyridin]-5-yl)oxy)-N-(thiazol-2-yl)benzenesulfonamide], the IC50 is over 100 nM. In turn, `N#Cc1cc(S(=O)(=O)Nc2nccs2)ccc1Oc1cnc(-c2cccnc2)cc1-c1ccoc1` [Example 13, 3-cyano-4-(4-(furan-3-yl)-2,3′-bipyridin-5-yloxy)-N-(thiazol-2-yl)benzenesulfonamide] displayed an IC50 of over 100 nM. Compound `O=S(=O)(Nc1nccs1)c1ccc(Oc2cnc(-c3ccoc3)cc2-c2ccoc2)c(F)c1` [Example 17, 4-((4,6-di(furan-3-yl)pyridin-3-yl)oxy)-3-fluoro-N-(thiazol-2-yl)benzenesulfonamide] gave an IC50 of over 100 nM. The compound `N#Cc1cc(S(=O)(=O)Nc2nccs2)ccc1Oc1cnc(-c2ccccc2)cc1-c1cn[nH]c1` [Example 39, 3-cyano-4-((6-phenyl-4-(1H-pyrazol-4-yl)pyridin-3-yl)oxy)-N-(thiazol-2-yl)benzenesulfonamide] returned an IC50 of 51 to 100 nM. The same measure for `O=S(=O)(Nc1cscn1)c1cc(Cl)c(Oc2cnc(-c3cccc(F)c3)cc2-c2ccnc(F)c2)cc1F` [Example 79, 5-chloro-2-fluoro-4-((2′-fluoro-6-(3-fluorophenyl)-[4,4′-bipyridin]-3-yl)oxy)-N-(thiazol-4-yl)benzenesulfonamide]: over 100 nM; for `N#Cc1cc(S(=O)(=O)Nc2nccs2)ccc1Oc1cnc(-c2ccc(F)nc2)cc1-c1cccnc1` [Example 49, 3-cyano-4-((6-fluoro-[3,2′:4′,3″-terpyridin]-5′-yl)oxy)-N-(thiazol-2-yl)benzenesulfonamide]: over 100 nM; for `O=S(=O)(Nc1cscn1)c1cc(F)c(Oc2cnc(-c3ccc(F)c(F)c3)cc2-c2cccnc2)cc1F` [Example 88, 4-((6′-(3,4-difluorophenyl)-[3,4′-bipyridin]-3′-yl)oxy)-2,5-difluoro-N-(thiazol-4-yl)benzenesulfonamide]: over 100 nM.

In general, IC50 refers to the point on the concentration scale where inhibition reaches its midpoint.
